# Reference: US20250213701A1, “MEDICAMENT FOR TREATING HUMAN TUMOR BASED ON ERF3A-TARGETING PROTEOLYSIS MECHANISM” (SUZHOU DEGEN BIO-MEDICAL CO., LTD., priority 2022, published 2025)
# How the values were obtained:
# AR = experiment: Western blot assay in 22Rv1 cells: AR; type: cell-based, human; conditions: different concentrations at 24 h, and 3 nM at different time points (FIGS. 7 and 8)
# From the text: Example 84: Western Blot Assay of Compound C59 in 22Rv1, PC-3, and HepG2 Cells
# (1) Materials: 22Rv1, PC-3, and HepG2 cell, anti-SRD5A1 antibody (ab167606), anti-SRD5A2 antibody (ab124877), anti-SRD5A3 antibody (PA5-107029), anti-androgen receptor (AR) antibody (CST, No. 5153), anti-GSPT1 antibody (Abcam, ab234433), anti-GADPH antibody (CST, No. 5174), anti-c-Myc antibody (CST, No. 8583), anti-α-tublin antibody (CST, No. 2125), anti-rabbit IgG, HRP-linked antibody (CST, No. 7074), electrophoresis device and membrane transfer device (LIUYI, BEIJING; DYCZ-24DN)
# Cell seeding: 22Rv1 (Cell Bank of the Chinese Academy of Sciences, TCHu100), PC-3 (Cell Bank of the Chinese Academy of Sciences, SCSP-532) and HepG2 cells (Cell Bank of the Chinese Academy of Sciences, TCHu72) were subcultured and trypsinized to prepare 6×10^5 cells/mL suspensions, seeded on 6-well plates (3 mL/well), and cultured overnight in a cell incubator at 5% CO2 and 37° C. […]
# Protein quantification: The protein was quantified using a BCA protein quantification kit. […]
# Western immunoblot assay (or Western blot, WB): SDS-PAGE gel at a proper concentration was prepared according to the molecular weight of the target protein: for example, the concentration of the separation gel was 8% and the concentration of the stacking gel was 5%. The loading volume was adjusted according to the protein quantification results. […]
# AGS cells = experiment: Anti-proliferative toxicity of C63 in tumor cell lines (CCK8): AGS; type: cell-based; conditions: Homo sapiens, 72 h, 3 days, read-out: Inhibition rate
# Protocol: (§1) Example 83: Detection of Anti-Proliferative Toxicity of C63 in Some Tumor Cell Lines
# AGS cells (purchased from the Cell Bank of the Chinese Academy of Sciences, Cat. No. TCHu232) were subcultured in a culture medium (F12K medium+[…] dual-antibiotic solution+10% fetal bovine serum) in an incubator at […] and 37° C.
# AGS cells were seeded at 2000 cells/well (90 μL) on a 96-well plate and cultured for 24 h.
# (§2) 10 mM compound stock solutions were prepared in DMSO.
# (§3) The compound stock solution was diluted with DMSO to give DMSO solutions 1-9 at concentrations of 0 μM, 2500 μM, 500 μM, 100 μM, 20 μM, 4 μM, 0.8 μM, 0.16 μM, and 0.032 μM.
# (§4) 2 μL of each of solutions 1-9 was added to 98 μL of the medium to give mixed solutions 11-19 of the compound and the medium.
# (§5) 10 μL of each of solutions 11-19 was added to the above cell seed solution to give a total volume of 100 μL (90 μL+10 μL).
# (§6) The concentrations of the compound in the wells were 0 μM, 5.0 μM, 1.0 μM, 0.2 μM, 0.04 μM, 0.008 μM, 0.0016 μM, 0.00032 μM, and 0.000064 μM. All concentrations were in triplicate.
# (§7) After the above-treated cells were cultured for 3 days, 10 μL of the CCK8 solution (DOJINDO, Cat. No. PF725) was added to each well. The plate was incubated in an incubator at 37° C. for 1-4 h and then detected on a microplate reader for the reading at 450 nm.
# MDA-MB-231 cells = experiment: Anti-proliferative toxicity of C63 in tumor cell lines (CCK8): MDA-MB-231; type: cell-based; conditions: Homo sapiens, 72 h, 3 days, read-out: Inhibition rate
# Protocol: as §1
# MDA-MB-231 cells (purchased from the Cell Bank of the Chinese Academy of Sciences, Cat. No. TCHu227) were subcultured in a culture medium (L15 medium+1% penicillin-streptomycin dual-antibiotic solution+10% fetal bovine serum) in an incubator at 37° C.
# MDA-MB-231 cells were seeded at 5000 cells/well (90 μL) on a 96-well plate and cultured for 24 h.
# as §2, §3, §4, §5, §6, §7
# BxPC-3 cells = experiment: Anti-proliferative toxicity of C63 in tumor cell lines (CCK8): BxPC-3; type: cell-based; conditions: Homo sapiens, 72 h, 3 days, read-out: Inhibition rate
# Protocol: as §1
# BxPC-3 cells (purchased from the Cell Bank of the Chinese Academy of Sciences, Cat. No. TCHu12) were subcultured in a culture medium (RPMI-1640 medium+1% penicillin-streptomycin dual-antibiotic solution+10% fetal bovine serum) in an incubator at 5% carbon dioxide and 37° C.
# BxPC-3 cells were seeded at 3000 cells/well (90 μL) on a 96-well plate and cultured for 24 h.
# as §2, §3, §4, §5, §6, §7
compound,measurement,setting,value
"C[C@]12C=CC(=O)N[C@@H]1CC[C@@H]1[C@@H]2CC[C@]2(C)[C@@H](C(=O)Nc3cccc(N[C@@H]4CCC[C@@H](Nc5cccc6c5C(=O)N(C5CCC(=O)NC5=O)C6=O)C4)c3)CC[C@@H]12 (stereo partly drawn) [C59, N-(3-(N—(N-(4-(2-(3-(2,6-dioxopiperidine))-isoindole-1,3-dione))-1R,3R-cyclohexanediamine))phenyl)-3-oxo-4-aza-5α-androst-1-ene-17β-carboxamide]",downregulation of AR protein (Western blot),AR,downregulation
"C[C@]12C=CC(=O)N[C@@H]1CC[C@@H]1[C@@H]2CC[C@]2(C)[C@@H](C(=O)Nc3cccc(N[C@@H]4CCC[C@@H](Nc5cccc6c5C(=O)N([C@H]5CCC(=O)NC5=O)C6=O)C4)c3)CC[C@@H]12 [C63, N-(3-(N—(N-(4-(2-(3S-(2,6-dioxopiperidine))-isoindole-1,3-dione))-1R,3R-cyclohexanediamine))phenyl)-3-oxo-4-aza-5α-androst-1-ene-17β-carboxamide]",inhibition at 64 pM,AGS cells; 0.000064 μM,17.5%
same,inhibition at 0.00032 µM,AGS cells; 0.000320 μM,11.1%
same,inhibition at 0.0016 µM,AGS cells; 0.001600 μM,20.4%
same,inhibition at 0.008 µM,AGS cells; 0.008000 μM,44.2%
same,inhibition at 0.04 µM,AGS cells; 0.040000 μM,59.7%
same,inhibition at 0.2 µM,AGS cells; 0.200000 μM,74%
same,inhibition at 1 µM,AGS cells; 1.000000 μM,79.8%
same,inhibition at 5 µM,AGS cells; 5.000000 μM,80.8%
same,inhibition at 64 pM,MDA-MB-231 cells; 0.000064 μM,27.6%
same,inhibition at 0.00032 µM,MDA-MB-231 cells; 0.000320 μM,62.8%
same,inhibition at 0.0016 µM,MDA-MB-231 cells; 0.001600 μM,75.6%
same,inhibition at 0.008 µM,MDA-MB-231 cells; 0.008000 μM,79.3%
same,inhibition at 0.04 µM,MDA-MB-231 cells; 0.040000 μM,80.1%
same,inhibition at 0.2 µM,MDA-MB-231 cells; 0.200000 μM,79.9%
same,inhibition at 1 µM,MDA-MB-231 cells; 1.000000 μM,78.8%
same,inhibition at 5 µM,MDA-MB-231 cells; 5.000000 μM,80.4%
same,inhibition at 64 pM,BxPC-3 cells; 0.000064 μM,3.64%
same,inhibition at 0.00032 µM,BxPC-3 cells; 0.000320 μM,22.6%
same,inhibition at 0.0016 µM,BxPC-3 cells; 0.001600 μM,56.5%
same,inhibition at 0.008 µM,BxPC-3 cells; 0.008000 μM,68.2%
same,inhibition at 0.04 µM,BxPC-3 cells; 0.040000 μM,71.6%
same,inhibition at 0.2 µM,BxPC-3 cells; 0.200000 μM,72.9%
same,inhibition at 1 µM,BxPC-3 cells; 1.000000 μM,76.5%
same,inhibition at 5 µM,BxPC-3 cells; 5.000000 μM,80.2%
